In the supplement of paper PMC10307832:

Assays:
Assay in all cases: relative viability (nuclei count vs DMSO), 5 days (fraction); higher = more cells survive
[1] = compound: COc1cc2nc(N3CCCN(C)CC3)nc(NC3CCN(Cc4ccccc4)CC3)c2cc1OC + CC(=O)c1c(C)c2cnc(Nc3ccc(N4CCNCC4)cn3)nc2n(C2CCCC2)c1=O [Palbociclib] (partner 0.5 µM)
Procedure, shortened: (§1)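 Cells from lung cancer lines were seeded into 1536-well plates and, one day later, dosed by pin tool. Treatments were either a single drug or a fixed dose of an anchor drug with five library-drug doses (not always all listed) in √10 steps. After 5 days, nuclei were stained in a one-step fixation (final 0.05% Triton X-100, 1% formaldehyde, 1 ug/ml Hoechst) and counted on 4× images, and relative viability is the treated-to-vehicle nuclei ratio, as the median of duplicate plates.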

[2] = compound: COc1cc2nc(N3CCCN(C)CC3)nc(NC3CCN(Cc4ccccc4)CC3)c2cc1OC + Nc1nc2[nH]cc(CCc3ccc(C(=O)N[C@@H](CCC(=O)O)C(=O)O)cc3)c2c(=O)[nH]1 [Pemetrexed] (partner 0.2 µM)
Procedure, shortened: as §1

AZD6482 + Alpelisib = compound: Cc1cc([C@@H](C)Nc2ccccc2C(=O)O)c2nc(N3CCOCC3)cc(=O)n2c1 [AZD6482] + Cc1nc(NC(=O)N2CCC[C@H]2C(N)=O)sc1-c1ccnc(C(C)(C)C(F)(F)F)c1 [Alpelisib] (partner 2 µM)
Procedure, shortened: as §1

AZD6482 + Decitabine = compound: Cc1cc([C@@H](C)Nc2ccccc2C(=O)O)c2nc(N3CCOCC3)cc(=O)n2c1 [AZD6482] + Nc1ncn([C@H]2C[C@H](O)[C@@H](CO)O2)c(=O)n1 [Decitabine] (partner 2 µM)
Procedure, shortened: as §1

| Cell Line | relative viability ([1]; first compound 0.2 µM) | relative viability ([1]; first compound 0.6325 µM) | relative viability ([1]; first compound 2 µM) | relative viability ([1]; first compound 6.325 µM) | relative viability ([2]; first compound 0.2 µM) | relative viability ([2]; first compound 0.6325 µM) | relative viability ([2]; first compound 2 µM) | relative viability ([2]; first compound 6.325 µM) | relative viability (AZD6482 + Alpelisib; first compound 0.08 µM) | relative viability (AZD6482 + Alpelisib; first compound 0.253 µM) | relative viability (AZD6482 + Alpelisib; first compound 0.8 µM) | relative viability (AZD6482 + Alpelisib; first compound 2.53 µM) | relative viability (AZD6482 + Alpelisib; first compound 8 µM) | relative viability (AZD6482 + Decitabine; first compound 0.08 µM) | relative viability (AZD6482 + Decitabine; first compound 0.253 µM) | relative viability (AZD6482 + Decitabine; first compound 0.8 µM) | relative viability (AZD6482 + Decitabine; first compound 2.53 µM) | relative viability (AZD6482 + Decitabine; first compound 8 µM) |
| --- | --- | --- | --- | --- | --- | --- | --- | --- | --- | --- | --- | --- | --- | --- | --- | --- | --- | --- |
| RERF-LC-KJ | 0.982 | 1.11 | 1.13 | 0.909 | 0.419 | 0.455 | 0.464 | 0.447 | 0.653 | 0.614 | 0.6 | 0.559 | 0.637 | 0.722 | 0.78 | 0.601 | 0.592 | 0.665 |
| LXF-289 | 0.583 | 0.603 | 0.615 | 0.586 | 0.924 | 0.879 | 0.999 | 0.828 | 0.946 | 1.01 | 0.966 | 0.798 | 0.706 | 0.356 | 0.422 | 0.36 | 0.356 | 0.369 |
| PC-14 | 0.536 | 0.477 | 0.446 | 0.0369 | 0.133 | 0.153 | 0.118 | 0.0737 | 0.857 | 0.882 | 0.832 | 0.663 | 0.807 | 0.225 | 0.174 | 0.273 | 0.315 | 0.271 |
| NCI-H650 | 0.394 | 0.307 | 0.31 | 0.295 | 0.935 | 0.877 | 0.924 | 0.92 | 1.11 |  | 0.997 | 0.656 | 0.778 | 0.318 | 0.292 | 0.378 | 0.33 | 0.317 |
| NCI-H1666 | 0.644 | 0.633 | 0.648 | 0.633 | 0.885 | 0.785 | 0.766 | 0.872 | 0.609 | 0.748 | 0.751 | 0.64 | 0.738 | 0.72 | 0.687 | 0.715 | 0.645 | 0.642 |
| NCI-H2085 | 0.455 | 0.484 | 0.5 | 0.458 | 0.827 | 1.02 | 0.943 | 0.87 | 0.426 | 0.409 | 0.351 | 0.34 | 0.409 | 0.485 | 0.456 | 0.471 | 0.357 | 0.403 |
| NCI-H1734 | 0.375 | 0.367 | 0.292 | 0.38 | 0.405 | 0.414 | 0.401 | 0.424 | 0.416 | 0.444 | 0.431 | 0.338 | 0.521 | 0.508 | 0.476 | 0.463 | 0.407 | 0.435 |
| NCI-H2126 | 0.373 | 0.325 | 0.367 | 0.328 | 0.74 | 0.623 | 0.637 | 0.644 | 0.608 | 0.569 | 0.606 | 0.476 | 0.559 | 0.56 | 0.565 | 0.49 | 0.494 | 0.465 |
| EMC-BAC-2 | 0.525 | 0.472 | 0.517 | 0.546 | 0.437 | 0.402 | 0.413 | 0.486 | 0.639 | 0.624 | 0.619 | 0.571 | 0.617 | 0.938 | 0.956 | 0.994 | 0.778 | 0.908 |
| NCI-H1993 | 0.582 | 0.721 | 0.77 | 0.748 | 0.602 | 0.644 | 0.579 | 0.549 | 0.701 | 0.653 |  |  | 0.767 | 0.526 | 0.481 | 0.598 | 0.436 | 0.458 |
| NCI-H520 | 0.168 | 0.259 | 0.25 | 0.148 | 0.608 | 0.622 | 0.573 | 0.183 | 0.381 | 0.287 | 0.263 |  | 0.353 | 0.418 | 0.331 | 0.344 | 0.198 | 0.244 |
| NCI-H647 | 0.336 | 0.457 | 0.348 | 0.213 | 0.161 | 0.199 | 0.19 | 0.152 | 0.622 |  | 0.778 | 0.459 | 0.526 | 0.374 | 0.406 | 0.302 | 0.236 | 0.361 |
| NCI-H1792 | 0.637 | 0.654 | 0.609 | 0.685 | 0.74 | 0.826 | 0.985 | 0.752 | 0.516 | 0.518 | 0.67 | 0.393 | 0.359 | 0.519 | 0.479 | 0.549 | 0.356 | 0.476 |
| SK-LU-1 | 0.409 | 0.353 | 0.394 | 0.375 | 0.952 | 0.949 | 1.03 | 0.889 |  | 0.89 | 0.892 | 0.76 | 0.76 |  | 0.567 | 0.627 | 0.549 | 0.425 |
| NCI-H2009 | 0.222 | 0.253 | 0.413 | 0.24 | 1 | 0.972 | 1.03 | 0.943 | 0.936 | 1.15 | 1.04 | 0.484 | 0.985 | 0.387 | 0.373 | 0.361 | 0.321 | 0.342 |
| LOU-NH91 | 0.464 | 0.424 | 0.588 | 0.552 | 0.411 | 0.393 | 0.401 | 0.398 | 0.547 | 0.676 | 0.647 | 0.525 | 0.639 | 0.753 | 0.828 | 0.788 | 0.661 | 0.7 |
| NCI-H2405 | 0.554 | 0.493 | 0.522 | 0.514 | 1.02 | 1.12 | 1.11 | 1.05 | 0.354 |  | 0.603 | 0.384 | 0.556 | 0.641 | 0.666 | 0.732 | 0.447 | 0.541 |
| LCLC-97TM1 | 0.219 | 0.231 | 0.254 | 0.238 | 0.194 | 0.156 | 0.189 | 0.199 | 0.274 | 0.19 | 0.238 | 0.187 | 0.204 | 0.218 | 0.204 | 0.196 |  | 0.213 |
| H3255 | 0.312 | 0.316 | 0.327 | 0.3 | 0.563 | 0.557 | 0.595 | 0.547 | 0.531 | 0.54 | 0.614 | 0.335 | 0.496 | 0.474 | 0.531 | 0.539 | 0.388 | 0.472 |
| SK-MES-1 | 0.319 | 0.304 | 0.295 | 0.106 | 1.06 | 0.887 | 0.904 | 0.495 | 0.515 | 0.658 | 0.459 | 0.269 | 0.433 | 0.331 | 0.279 | 0.396 | 0.28 | 0.275 |
| NCI-H1437 | 0.29 | 0.319 | 0.32 | 0.279 | 0.279 | 0.293 | 0.36 | 0.324 | 0.819 | 0.842 | 0.809 | 0.641 | 0.741 | 0.572 | 0.523 | 0.607 | 0.572 | 0.407 |
| LU99A | 0.379 | 0.38 | 0.371 | 0.412 | 0.17 | 0.185 | 0.177 | 0.187 | 0.452 | 0.441 | 0.619 | 0.372 | 0.421 | 0.803 | 0.858 | 0.968 | 0.801 | 0.775 |
| HCC-827 | 0.478 | 0.448 | 0.437 | 0.446 | 0.259 | 0.277 | 0.215 | 0.235 | 0.613 | 0.506 | 0.456 | 0.33 | 0.351 | 0.341 | 0.301 | 0.342 | 0.267 | 0.264 |
| LK-2 | 0.658 | 0.884 | 0.841 | 0.598 | 0.311 | 0.276 | 0.296 | 0.273 | 1.07 |  | 1.86 | 0.972 | 1.21 | 0.34 | 0.315 | 0.288 | 0.241 | 0.301 |
| HCC-366 | 0.373 | 0.404 | 0.396 | 0.409 | 0.186 | 0.151 | 0.171 | 0.164 | 0.171 | 0.165 | 0.208 | 0.105 | 0.188 | 0.309 | 0.302 | 0.313 | 0.304 | 0.345 |
| BEN | 0.437 | 0.471 | 0.473 | 0.476 | 0.827 | 0.943 | 1.01 | 0.716 | 0.866 | 0.886 | 1.11 | 0.828 | 0.947 | 0.621 | 0.533 | 0.767 | 0.509 | 0.581 |
| NCI-H23 | 0.475 | 0.522 | 0.521 | 0.415 | 0.66 | 0.695 | 0.918 | 0.703 | 0.642 | 0.534 | 0.713 | 0.374 | 0.597 | 0.309 | 0.288 | 0.32 | 0.312 | 0.304 |
| NCI-H1395 | 0.642 | 0.605 | 0.618 | 0.565 | 0.892 | 0.84 | 0.824 | 0.635 | 0.696 | 0.573 | 0.732 | 0.5 | 0.587 | 0.584 | 0.601 | 0.636 | 0.496 | 0.489 |
| 201T | 0.375 | 0.361 | 0.354 | 0.365 | 0.31 | 0.334 | 0.335 | 0.279 | 0.908 | 0.809 | 0.842 | 0.714 | 0.848 | 0.855 | 0.763 | 0.844 | 0.816 | 0.812 |
| NCI-H2170 | 0.383 | 0.406 | 0.37 | 0.352 | 0.256 | 0.26 | 0.271 | 0.274 | 0.662 | 0.666 | 0.713 | 0.56 | 0.681 | 0.427 | 0.443 | 0.432 | 0.423 | 0.442 |
